Data on one compound can be found in PMC9605072, “Guanidine Derivatives of Quinazoline-2,4(1H,3H)-Dione as NHE-1 Inhibitors and Anti-Inflammatory Agents” (Life, 2022).

Entries after “also recorded” stand apart in the source; their conditions may differ.

One data set deals with male ICR mice. The data set is described as follows: Tail suspension test (antidepressant activity). The format is in vivo. The conditions noted are these: 4.0 mg/kg; mean ± SD, n = 6; vehicle 264.8 ± 11.6 s. The procedure: Antidepressant activity was determined on 36 male ICR mice weighing 22–25 g as described in [14] using the Panlab LE808 apparatus.
The tail suspension test was used to assess the antidepressant activity of the most-active NHE-1 inhibitors.

In the next data set the test system is rabbit platelets. The data set is described as follows: ADP-induced platelet aggregation assay. The format is cell-based. The note with it: Oryctolagus cuniculus, m ± SD, n = 5. The procedure:
Platelet aggregation was assessed on a two-channel laser analyzer “BIOLA-220 LA” (Russia) as described previously using rabbit platelets.

The subject of data set [1] is C57bl/6j peritoneal macrophages. The data set is described as follows: Macrophage phagocytosis assay. The format is cell-based, mice. The method, then: The phagocytic activity of peritoneal macrophages was assessed after staining with Azur-Eosin with Romanovsky’s modifications as reported by us previously with a light microscopy using a Mikmed-6 (LOMO, Saint Petersburg, Russia) equipped with a digital camera.
(§1) In an attempt to identify safer alternatives to steroid anti-inflammatory agents, it is mandatory to evaluate lead compounds for immunodepressant activity. To do so, we determined the influence of compound 4a on macrophage phagocytosis after 72 h of incubation. Cell viability was monitored in parallel via the LDH assay.
(Figure 3). The mean number of phagocytosed particles per cell was […]. […] Macrophage spreading was registered and visually scored as a phenotypic marker of cell activation phagocytic capacity.

The test system of data set [2] is LPS-stimulated C57bl/6j peritoneal macrophages. Description: LPS-induced IL-6 secretion in primary peritoneal macrophages (ELISA). The note with it: Mus musculus, Peritoneal macrophage; LPS 100 ng/mL; n = 3; read-out: IL-6 Secretion IC50 ± SE. The format is cell-based, mice. The procedure:
(§2) Primary C57bl/6j murine macrophages were elicited with intraperitoneal injection of 3% peptone solution as per the standard procedure. Stimulation of inflammatory response was performed with E. coli O127:B8 LPS (100 ng/mL final concentration).
(§3) Nitric oxide was determined in culture supernatants as a nitrite anion with a standard Griess reagent after 22 h of incubation with test compounds at a wavelength of 550 nm with a microplate reader Infinite M200 PRO (Tecan GmbH, Grodig, Austria). Concentrations of IL-6 and TNF- α in cell supernatants were quantified with commercial ELISA kits according to the manufacturer’s instructions (Cloud-clone Corp., Katy, TX, USA).
(§4) Given our primary focus on the development of agents against cytokine-mediated tissue damage, we evaluated the target compounds as inhibitors of pro-inflammatory macrophage activation. Primary peritoneal macrophages were isolated from C57bl/6j mice, pooled, and stimulated with E. coli LPS as TLR4 agonist. Pro-inflammatory activation was assessed as nitric oxide (NO) synthesis and interleukin-6 (IL-6) secretion. The cytotoxicity of the compounds was monitored in parallel using the lactate dehydrogenase assay.

The subject of the next data set is C57bl/6j mice. The data set is described as follows: LPS-induced acute lung injury model. The format is in vivo. The conditions noted are these: 4a 50 mg/kg (30 mg/kg in source) i.p. The method, then: Prior to the experiment, C57BL/6J mice were randomized according to body weight and motor activity in an open field test. […] Animals of the control group were injected with an equal volume of the vehicle. Animals were anesthetized with isoflurane inhalation until the breathing rate decreased 1 h later. Mice were suspended by the front incisors on an inclined surgical table; the tongue was pulled out with narrow curved tweezers, and 1 mg/mL of E. coli O127:B8 LPS (Sigma-Aldrich, Israel) in 1 mL/kg sterile saline was injected into the back of the oropharynx to allow aspiration. Intact animals received an equal volume of sterile saline in a similar way.
The open field test was performed with the NPO “Open Science” (Russia) arena of 44 cm diameter and 32 cm wall height under 300 lux lighting as reported by us previously.
Mice were anesthetized with 500 mg/kg chloral hydrate (Sigma-Aldrich, Germany) intraperitoneally 24 h after LPS administration. Blood and bronchoalveolar lavage (BAL) sampling was performed as described in [13]. Leukocyte counts and the lung permeability index were determined as described by us previously.
Histological and immunohistological assessment of tissue sections was performed in a semi-quantitative way on paraffin sections after hematoxylin and eosin staining with a light microscope (Zeiss, Germany) with double-blinding. The degree of inflammation was determined as previously reported.
Lung injury was assessed 24 h later based on behavioral, biochemical, cytological, and morphological alterations.

Another data set addresses T1, rabbit platelet NHE-1 (Oryctolagus cuniculus, UniProt P23791).
T1 construct: endogenous in cells; host or cells: rabbit platelets
The data set is described as follows: NHE-1 inhibition assay (rabbit platelets, laser aggregometer). The format is cell-based. The procedure: Inhibition of rabbit platelet NHE-1 was determined according to the method of [8, 9] in our modification, which was reported by us previously using the laser aggregometer BIOLA-220 LA (Russia).
Target compounds were evaluated as inhibitors of rabbit platelet NHE-1 (Table 1). It was shown that the substitution of H^5 with bromine decreased the activity of compounds 3b and 4b, indicating possible steric limitations of the binding site.

A further data set has as its system rat intraocular pressure. Description: Intraocular pressure study (TonoVet). The note with it: rats; 0.4% eye drops; m ± SD, n = 5. Type of data set: in vivo. The procedure: Intraocular pressure was measured on 75 adult outbred rats of both sexes with a TonoVet device (Finland) as reported by us previously.
To access the influence on rat eye aqueous humor formation, the studied compounds were administered as 0.4% eye drops. […] Introduction of 5-bromine (4b) or acyclic guanidine N^1 , N^3 -side chains (3a) led to 2- and 3-fold activity reduction, respectively.

Data set [3] in a line: Cytotoxicity, lactate dehydrogenase (LDH) assay. Type of data set: cell-based, mice. The note with it: C57bl/6j, mouse, primary peritoneal macrophages stimulated with E. coli LPS; LPS-stimulated macrophages; n = 3; read-out: LDH CC50 ± SE. The method, then:
(§5) The activity of lactate dehydrogenase (LDH) in a cell culture medium was determined as reported by us previously with a microplate reader Infinite M200 PRO (Tecan, Austria).
as §4, §1

Data set [4] has as its system C57bl/6j peritoneal macrophages. Description: Cytotoxicity, lactate dehydrogenase (LDH) assay. Type of data set: cell-based, mice. The note with it: 72 h of incubation, in parallel to phagocytosis. The procedure:
as §5, §4, §1

For data set [5], the system named is LPS-stimulated C57bl/6j peritoneal macrophages. Description: LPS-induced nitric oxide synthesis in primary peritoneal macrophages (Griess). Type of data set: cell-based, mice. The conditions noted are these: Mus musculus, Peritoneal macrophage; LPS 100 ng/mL; 22 h incubation; n = 3; read-out: NO Synthesis IC50 ± SE. The method, then:
as §2, §3, §4

T1 sequence (P23791 whole entry): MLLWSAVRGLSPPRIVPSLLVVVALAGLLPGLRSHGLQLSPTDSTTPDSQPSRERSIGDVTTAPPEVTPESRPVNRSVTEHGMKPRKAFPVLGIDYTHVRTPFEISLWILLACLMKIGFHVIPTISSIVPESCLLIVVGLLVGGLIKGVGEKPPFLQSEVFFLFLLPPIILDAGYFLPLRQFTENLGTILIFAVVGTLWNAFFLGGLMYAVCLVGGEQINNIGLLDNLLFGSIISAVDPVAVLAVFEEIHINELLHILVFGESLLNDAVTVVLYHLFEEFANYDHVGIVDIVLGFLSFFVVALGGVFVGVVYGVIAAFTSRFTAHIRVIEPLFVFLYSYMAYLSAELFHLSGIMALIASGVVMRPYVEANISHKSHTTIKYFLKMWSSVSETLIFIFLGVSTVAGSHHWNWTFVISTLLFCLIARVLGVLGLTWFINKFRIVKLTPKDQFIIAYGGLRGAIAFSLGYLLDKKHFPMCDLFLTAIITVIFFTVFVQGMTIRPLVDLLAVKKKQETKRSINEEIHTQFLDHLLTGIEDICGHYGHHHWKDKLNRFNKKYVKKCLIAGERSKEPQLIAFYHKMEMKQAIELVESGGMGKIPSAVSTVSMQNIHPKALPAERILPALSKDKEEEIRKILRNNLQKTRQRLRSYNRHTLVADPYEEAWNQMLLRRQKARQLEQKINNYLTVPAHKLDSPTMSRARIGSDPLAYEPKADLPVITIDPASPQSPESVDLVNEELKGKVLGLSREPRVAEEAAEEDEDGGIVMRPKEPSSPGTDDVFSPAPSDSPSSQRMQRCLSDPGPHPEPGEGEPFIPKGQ

One may read the melting point as the temperature of the solid-liquid transition. A word on the inhibition: it is the relative decrease from the control value, in per cent. Lower therefore signals a weak effect. The IC50 is the concentration needed to halve the response being measured. Usually CC50 stands for the concentration that lowers cell viability or growth by half. Consider `Nc1nnc(Cn2c(=O)c3ccccc3n(Cc3nnc(N)[nH]3)c2=O)[nH]1` [Compound 4a, 1,3-Bis[(5-amino-4H-1,2,4-triazol-3-yl)methyl]quinazoline-2,4(1H,3H)-dione], for which the melting point was in the range of 314 to 318 °C. The “Immobilization Time” value in the data set with male ICR mice is reported as 164.4 ± 23.19 s. Besides, in the data set with rabbit platelets, at 100 µM the inhibition was 39.3 ± 11.9%. For the same compound, in data set [1] (72 h of incubation), the “Decrease of the mean number of phagocytosed particles” value stood at 23% and the Phagocytic activity entry was “insignificantly influenced”. The “Macrophage spreading (visually scored)” value in data set [1] (yeast-treated macrophages, 72 h) was “marginally reduced spreading”. For the same compound, in [2], the IC50 stood at 51.8 ± 1.65 µM. The “Exploratory activity, open field test” value in the data set with C57bl/6j mice is “comparably improved exploratory activity”. Moreover, the “Motor activity, open field test” value in the data set on C57bl/6j mice (2 and 22 h after LPS) is “restored the motor activity of animals”. Besides, in the data set with C57bl/6j mice (24 h after LPS), the “CD68+ macrophage accumulation in lung tissue (immunostaining)” value is on record as “effectively limited LPS-induced inflammation”; the “Lung tissue histology (hematoxylin and eosin)” value is on record as “reduced LPS-induced inflammation in mouse lung tissue”; the “Plasma IL-6” value is “significantly reduced plasma IL-6”; the “Pulmonary (alveolar) vessel permeability” value is reported as “preserved pulmonary vessels’ permeability”. For the same compound, the “Segmented neutrophils in BAL” value with C57bl/6j mice (24 h after LPS) was “significantly ameliorated the accumulation of segmented neutrophils; also recorded: most pronounced inhibition of the neutrophil migration”. 0.01 µM produced 29.4 ± 4.4% inhibition against rabbit platelet NHE-1 (10 nM, m ± SD, n = 6, rabbit platelets). Besides, the IC50 against rabbit platelet NHE-1 (rabbit platelets) amounted to 0.324 µM. In addition, the “NHE-1 potency relative to amiloride” value on rabbit platelet NHE-1 (ratio of IC50 vs amiloride) is given as “exceeding amiloride by four times”. For the same compound, the “Max IOP Reduction” value in the data set on rat intraocular pressure is given as 28.25 ± 7.92%. The CC50 in data set [3] is greater than 100 µM. In addition, in [4], the “Cell viability (LDH assay)” value was “slightly decreased”. Moreover, the IC50 in data set [5] worked out at 73 ± 7.83 µM.
